# Test results reported in publication PMC5306082, “Physiologically based kinetic modeling of the bioactivation of myristicin” (Archives of Toxicology, 2016).
# Columns and labels:
# Format in all cases: in vitro ADME
# [1] = Microsomal conversion of myristicin, male rat liver microsomes
# Description: First, it was determined which organs are involved in the biotransformation of myristicin in rat and human. For this purpose, liver, kidney, lung, and small intestine microsomes from male Sprague–Dawley rat and pooled gender human were used. Incubations were performed by adding myristicin to incubation mixtures containing 1 mg/mL of the microsomal protein preparations and 3 mM NADPH in 0.2 M Tris–HCl (pH 7.4). After 1 min of pre-incubation at 37 °C, myristicin (final concentration, 1000 μM) was added from a 100 times concentrated stock solution in DMSO so that the final DMSO content was 1 % (v/v). Incubations were carried out for 30 min after which the reactions were terminated by adding 25 µl (0.25 times the incubation volume) of ice-cold ACN. Samples were centrifuged for 5 min at 13,000×g, and the supernatant was stored at −20 °C until UPLC analysis. As metabolism of myristicin was observed only in incubations with liver microsomes for male rats and pooled gender human, the determination of kinetic constants for the formation of microsomal metabolites was performed only for the liver fractions. Incubations to determine kinetic constants were performed following the conditions described above using final concentrations of myristicin from 25 to 1000 μM for rat and human liver. In all incubations, the final concentration of DMSO, in which myristicin was dissolved, was kept at 1 % (v/v). The formation of different microsomal metabolites was linear with time and microsomal protein concentration under the conditions described. Blank incubations were performed in the absence of the cofactor NADPH. All incubations were performed in triplicate.
# Secondary metabolism of the relevant 1′-hydroxy metabolite of myristicin was taken into account by determining the kinetic constants for its conversion in (a) glucuronidation, (b) sulfation, and (c) oxidation, again under conditions that allowed adequate definition of kinetic constants and with <10 % substrate conversion. Incubation samples were subjected to UPLC analysis that was performed as described previously (Punt et al. [2008]). Identification was achieved by comparing the UV spectra of the formed metabolites to the spectra of the synthesized 1′-hydroxymyristicin and 1′-oxomyristicin reference standards. Quantification of all formed metabolites was done by comparing the peak areas to those of calibration curves of the corresponding reference compounds, determined using UPLC with photodiode array detection (UPLC-PDA). The UPLC system was composed of a Waters (Waters, Milford, MA) Acquity solvent manager, sample manager, and photodiode array detector, equipped with Water Acquity UPLC BEH C18 column.
# The gradient for analysis of microsomal metabolites was performed with 100 % ACN and ultrapure water containing 0.1 % (v/v) TFA. The flow rate was 0.6 ml/min. The gradient started at 10 % ACN, increased to 50 % ACN over 4 min, increased to 80 % over 0.5 min, followed by decrease to 10 % ACN over 0.5 min, and finally kept at 10 % for 1 min.
# [2] = Glucuronidation of 1′-hydroxymyristicin, male rat liver S9
# Description: (§1) The kinetic constants for the metabolic conversion of 1′-hydroxymyristicin to 1′-hydroxymyristicin glucuronide (HMG) by both male rat and human liver fractions were determined as described previously for the related 1′-hydroxyalkenylbenzenes (Punt et al. [2008]; van den Berg et al. [2012]; Punt et al. [2009]; Martati et al. [2011], [2012]; Al-Subeihi et al. [2011], [2012]). Briefly, incubations contained (final concentrations) 10 mM of UDPGA and 0.5 mg/ml of male Sprague–Dawley or pooled gender human S9 protein in 0.2 M Tris–HCl (pH 7.4) containing 10 mM of MgCl2. To overcome enzyme latency and to obtain maximal glucuronidation activity, incubations containing S9 were pretreated on ice with 0.025 mg/ml alamethicin added from a 200 times concentrated stock dissolved in methanol (Fisher et al. [2000]; Lin and Wong [2002]). After 15 min of alamethicin treatment, samples were pre-incubated at 37 °C for 1 min, and reactions were subsequently started by adding 1′-hydroxymyristicin at final concentrations of 10 to 1200 μM. 1′-Hydroxymyristicin was added from 100 times concentrated stock solutions in DMSO. The reaction mixtures were incubated for 30 and 180 min for rat and human, respectively, and terminated by adding 25 µl (0.25 times the incubation volume) of ice-cold ACN. Blank incubations were carried out in the absence of the cofactor UDPGA. Experiments were performed in triplicate. The longer incubation time in human samples was required due to the lower rate of glucuronidation. The formation of 1′-hydroxymyristicin glucuronide was linear with time and the S9 protein concentration under the experimental conditions described. All samples were centrifuged for 5 min at 16,000×g, and the supernatant was stored at −20 °C until ultra-performance liquid chromatography (UPLC) analysis.
# (§2) 1′-Hydroxymyristicin glucuronide was estimated based on the comparison of the peak area of the formed metabolite to the calibration curve of 1′-hydroxymyristicin at a wavelength of 210 nm. The flow rate was 0.6 ml/min. The gradient was made using a mixture of ACN and ultrapure water containing 0.1 % (v/v) TFA.
# [3] = Glucuronidation of 1′-hydroxymyristicin, human liver S9; conditions: both sexes, human, pH 7.4; 1′-hydroxymyristicin to its glucuronide; S9, UDPGA; read-out: Km
# Description: as §1, §2
smiles,measurement,setting,value
"C=CC(O)c1cc(OC)c2c(c1)OCO2 (stereo not shown) [1′-Hydroxymyristicin, 1′-hydroxymyristicin]",Vmax,"[1]; formation of the metabolite from myristicin, NADPH, mean of three ± SD",0.86 ± 0.18 nmol min^−1 (mg microsomal or S9 protein)^−1
same,In vitro catalytic efficiency,"[1]; formation of the metabolite from myristicin, Vmax/Km × 1000",8.431 μl min^−1 (mg microsomal or S9 protein)^−1
same,"Scaled Vmax, in vivo","[1]; from myristicin, microsomal protein yield 35 mg/g liver",1.806 μmol/h/g tissue
same,In vivo catalytic efficiency,"[1]; from myristicin, scaled Vmax/Km",0.0177 ml/h/g tissue
same,"Km for formation from myristicin, fold lower in rat liver than in human liver incubations",[1]; rat vs human,twofold lower
same,"Vmax for formation from myristicin, fold higher in rat liver than in human liver incubations",[1]; rat vs human,fivefold higher
same,"catalytic efficiency for formation from myristicin, fold higher in male rat liver than in human liver","[1]; scaled catalytic efficiency, rat vs human",13 fold
same,Km at 30 min,"[2]; male, Sprague-Dawley, rat, pH 7.4, 1′-hydroxymyristicin to its glucuronide, S9, UDPGA, read-out: Km",836 µM
same,"catalytic efficiency of glucuronidation, fold higher in male rats than in human",[2]; rat vs human,400 fold
same,Km at 180 min,[3],3140 µM
